In data set [1] the test system is red blood cells. In words: Hemolysis. It counts as cell-based, human. The note with it: 4 hours. How it is done: Hemolysis: Peptide induced hemolysis was evaluated according to methods described previously [Hilchie, A. L., et al. (2016). Mastoparan is a membranolytic anti-cancer peptide that works synergistically with gemcitabine in a mouse model of mammary carcinoma. Biochimica Et Biophysica Acta, 1858(12), 3195-3204]. Briefly, red blood cells were obtained, with human ethics approval, from the blood of healthy volunteers collected in a sodium heparin tube and then rinsed three times in PBS, centrifuging between washes, to obtain the hematocrit (100% RBC). A 2.5% RBCs suspension was exposed to peptide at varying concentrations and incubated at 37 C in a 5% CO2 humidified atmosphere for 4 hours. Supernatants were collected following centrifugation (1100 rpm) and transferred to a flat bottom microtitre plate. The absorbance (490 nm) of each supernatant was measured on a BioTek Epoch Microplate Spectrophotometer. Percent hemolysis was calculated by comparing the absorbance arising from peptide treated cells to RBCs treated with […] (0% hemolysis) or lysed with 1% Triton X-100 (100% hemolysis).

Data set [2] has as its system peripheral blood mononuclear cells (PBMCs). The experiment in a line: Cytotoxicity (LDH release), PBMCs. Background: LDH in the medium is a marker of cell lysis.
Data set [3] deals with Enterobacter cloacae 218R1. The experiment in a line: Biofilm inhibition (at least 80%), E. cloacae. It counts as cell-based. The following applies: E. cloacae 218R1; n = 3; BM2 minimal media; 18-24 hours; crystal violet.
The subject of data set [4] is Acinetobacter baumannii Ab5075. In words: Biofilm inhibition (at least 80%), A. baumannii. The class given is cell-based. The following applies: n = 4, BM2 minimal media, 18-24 hours, crystal violet.
In data set [5] the test system is 3-day-old oral plaque (multispecies) biofilms. In words: Oral plaque biofilm model, long-term (1-3 days) exposure, dead cell volume. The following applies: for Proportion of dead biofilm cells: daily for 3 days, compared to DJK5 (FIG. 16A). It counts as cell-based.
For data set [6], the system named is 3-day-old oral plaque biofilms. The experiment in a line: Oral plaque biofilm model, brief (1 minute) exposure, dead cell volume. The class given is cell-based. The note with it: 10 μg/mL, 1 minute (FIG. 11).
Data set [7] has as its system P. aeruginosa PAO1. In words: Biofilm inhibition (at least 80%), P. aeruginosa. It counts as cell-based, Pseudomonas aeruginosa. The following applies: n = 4, BM2 minimal media, 18-24 hours, crystal violet.
The test system of data set [8] is MRSA USA300. The experiment in a line: Biofilm inhibition (at least 80%), MRSA. It counts as cell-based, methicillin resistant Staphylococcus aureus. The following applies: n = 4, 10% TSB + 0.1% glucose, 18-24 hours, crystal violet.
For data set [9], the system named is Klebsiella pneumonia KPLN649. The experiment in a line: Biofilm inhibition (at least 80%), K. pneumonia. The class given is cell-based. The following applies: K. pneumoniae KPLN649; n = 3; BM2 minimal media; 48 hours; crystal violet.
Data set [10] concerns Enterococcus faecium #2-1. In words: Biofilm inhibition (at least 80%), E. faecium. The class given is cell-based. The following applies: E. faecium #2-1; n = 3; TSB + 1% glucose; 48 hours; crystal violet.
The subject of data set [11] is ESKAPEE Pathogens.
The test system of data set [12] is E. coli O157:H7. The experiment in a line: Biofilm inhibition (at least 80%), E. coli. The note with it: n = 3, BM2 minimal media, 18-24 hours, crystal violet. The class given is cell-based, Escherichia coli.
In data set [13] the test system is PAO1 preformed biofilms.
The test system of data set [14] is MRSA USA300 biofilms. In words: Biofilm inhibition by >95% pure peptides (crystal violet), MRSA. The class given is cell-based, methicillin resistant Staphylococcus aureus. The note with it: MRSA, 24 hours.
Data set [15] concerns MRSA biofilms on N/TERT epithelial skin. In words: Skin organoid biofilm model, peptide-loaded collagen dressings, MRSA. It counts as cell-based, methicillin resistant Staphylococcus aureus. The following applies: compared to DJK-5 and ciprofloxacin.
In data set [16] the test system is P. aeruginosa biofilms on N/TERT epithelial skin. In words: Skin organoid biofilm model, peptide-loaded collagen dressings, P. aeruginosa. It counts as cell-based, Pseudomonas aeruginosa. The following applies: compared to DJK-5 and ciprofloxacin.
The test system of data set [17] is MRSA biofilms on human skin organoid. In words: Skin organoid biofilm infection model, peptide solution, MRSA. The following applies: peptide solution 4 hrs (FIG. 3A). It counts as cell-based, methicillin resistant Staphylococcus aureus.
The nature of data set [18]: Peptide aggregation in RPMI + 10% FBS with PBMCs (microscopy). The class given is physicochemical. The note with it: 50 μg/ml, overnight. How it is done: Peptide Aggregation: Peptide aggregation was assessed qualitatively by examining samples of peptides mixed with PBMCs following overnight incubation at 37 °C and 5% CO2. All samples were prepared in RPMI media containing 10% FBS the same manner as the cytotoxicity assays described above. Visualization of aggregates was done using a Nikon Eclipse TS100 Inverted Microscope at 10× magnification.
In aggregation studies, peptides were added to PBMCs in RPMI media containing 10% FBS and incubated overnight at 37 °C in 5% CO2.
The peptides were also evaluated for their tendency to aggregate when added to RPMI tissue culture media containing 10% fetal bovine serum in the presence of PBMCs. Peptides were added to PBMCs in RPMI media containing 10% FBS and incubated overnight at 37 °C in 5% CO2. […] Compared to a highly aggregation prone peptide, 1018 [Haney, E. F., et al. (2017). Aggregation and its influence on the immunomodulatory activity of synthetic innate defense regulator peptides.
As with the DJK-5 derivatives above, the AB103-D derivatives were evaluated for their tendency to aggregate when added to RPMI tissue culture media containing 10% fetal bovine serum in the presence of PBMCs. Peptides were added to PBMCs in RPMI media containing 10% FBS and incubated overnight at 37 °C in 5% CO2.

Data set [19] has as its system P. aeruginosa LESB58. In words: Murine model of abscess infections. It counts as in vivo, murine; Pseudomonas aeruginosa.
Data set [20] concerns human bronchiolar epithelial cells (HBEs). The experiment in a line: Cytotoxicity (LDH release), human bronchiolar epithelial cells.
Data set [21] has as its system N/TERT keratinocytes. The experiment in a line: Cytotoxicity (LDH release), N/TERT keratinocytes.
In data set [22] the test system is MRSA preformed biofilms. The experiment in a line: Biofilm eradication of 24-hr preformed biofilms (TTC metabolic dye), MRSA. The following applies: 24-hr preformed biofilms treated overnight. It counts as cell-based, methicillin resistant Staphylococcus aureus.
Data set [23] has as its system PAO1 biofilms on human skin organoid. The experiment in a line: Skin organoid biofilm infection model, peptide solution, PAO1. The class given is cell-based, Pseudomonas aeruginosa. The note with it: peptide solution 4 hrs (FIG. 3B).
For data set [24], the system named is P. aeruginosa PAO1 biofilms.

Where a SMILES comes first, the peptide text is derived from it. [ ]: non-standard residue; d: D form.

In the case of `CC[C@@H](C)[C@@H](NC(=O)[C@@H](C)NC(=O)[C@@H](CCCNC(=N)N)NC(=O)[C@@H](Cc1c[nH]c2ccccc12)NC(=O)[C@@H](CCC(N)=O)NC(=O)[C@H](N)C(C)C)C(=O)N[C@H](CCCNC(=N)N)C(=O)N[C@@H](C(=O)N[C@@H](C(=O)N[C@@H](C(=O)N[C@@H](C(=O)N[C@H](CCCNC(=N)N)C(N)=O)[C@H](C)CC)C(C)C)[C@H](C)CC)C(C)C` [AB107-D, vqwrairvivir-NH2] (H-[dV][dQ][dW][dR][dA][dI][dR][dV][dI][dV][dI][dR]-NH2), in [1], the Hemolysis entry is “non-toxic at all concentrations evaluated”. Also, the “Cytotoxicity (LDH)” value in data set [2] was “non-toxic at all concentrations evaluated”. For the same molecule, the “Peptide/Antibiotic Concentration where at least 80% of biofilm growth was inhibited” value in data set [3] amounted to 1 µg/mL; in data set [4] it was 1 µg/mL; in data set [7], 4 µg/mL; in data set [8], 1 µg/mL; in data set [9] it was 4 µg/mL; in [10], 1 µg/mL. For the same molecule, the “Peptide/Antibiotic Concentration where at least 80% of biofilm growth was inhibited” value in data set [12] came to 1 µg/mL. Further, the “Killing of oral plaque biofilms, long-term exposure” value in data set [5] (10 μg/mL, 1 or 3 days (FIG. 10)) is given as “significantly enhanced killing of the oral plaque biofilms”. Moreover, the “Killing of oral plaque biofilms, brief exposure” value in data set [6] is listed as “comparable to or better than peptide DJK-5”. In data set [11], the “Broad spectrum antibiofilm activity, more active than DJK5” value is given as 2-4 fold.
As to `CC[C@@H](C)[C@@H](NC(=O)[C@@H](CCCNC(=N)N)NC(=O)[C@H](N)CCCCN)C(=O)N[C@H](CCCNC(=N)N)C(=O)N[C@H](Cc1c[nH]c2ccccc12)C(=O)N[C@@H](C(=O)N[C@@H](C(=O)N[C@H](CC(C)C)C(=O)N[C@H](CCCNC(=N)N)C(=O)N[C@@H](C(=O)N[C@@H](C(=O)N[C@H](CCCNC(=N)N)C(N)=O)[C@H](C)CC)C(C)C)[C@H](C)CC)C(C)C` [AB101-D, krirwvilrvir-NH2] (H-[dK][dR][dI][dR][dW][dV][dI][dL][dR][dV][dI][dR]-NH2), in data set [13] (P. aeruginosa, compared with DJK5), the “Enhanced antibiofilm eradication activity” value is greater than 2 fold. The IC50 was 1.9 µM in data set [13] (read-out: Biofilm Eradication IC50, PAO1, 24-hr preformed biofilms treated overnight, TTC); 0.27 µM in [14]; 1.4 µM in [22]; 1.1 µM in data set [24] (read-out: Biofilm Inhibition IC50, PAO1, 24 hours, crystal violet). Moreover, the “Cytotoxicity (LDH)” value in [2], in data set [20] and in [21] was “low toxicity” in each case. Also, the “Proportion of dead biofilm cells” value is on record as “superior to DJK5 at killing bacteria cells” in data set [5] (10 μg/ml) and “killed more of the biofilm cells” in [5] (1 or 5 μg/ml). Besides, the “Antibiofilm activity from collagen dressing” value in [15] is “clearly superior activity to both DJK-5 and ciprofloxacin”; in [16], “clearly superior activity to both DJK-5 and ciprofloxacin”. Besides, the “Antibiofilm activity on skin organoid” value in [17] and in data set [23] was “excellent antibiofilm activity” in each case. In addition, the Peptide aggregation result in data set [18] was “some small aggregates”. Besides, the Abscess size entry in data set [19] is “reduced abscess size”. Moreover, the “Biofilm inhibition activity compared to DJK5” value in [24] (P. aeruginosa) is no less than 4 fold.

What is called IC50 is the concentration at which inhibition is half-maximal.

The values above are taken from patent publication US20260374818A1, “CATIONIC PEPTIDES WITH BROAD SPECTRUM ACTIVITY” (priority 2023, published 2026).
